Ends that are not written are not given here.
Assays:
[1] = test system: spleen cells of Ovalbumin-immunized Balb/c mice; experiment: Th1/Th2 cytokine profiling assay; format: cell-based, mouse; details: 10 micrograms per ml; Ovalbumin restimulation; 72 hours supernatant
Excerpt: Results from Th1/Th2 Cytokine assay:

HUVEC = experiment: Endothelial tube formation assay; format: cell-based, human; details: 10 micrograms per ml, 20 hours, average tubule length
Excerpt: Positive control was vehicle only. […] Raw data were expressed as average tubule lenghs in pixels±standard deviation.

HCMV strain AD169 = experiment: HCMV plaque formation assay in MRC-5 cells; details: for inhibition of HCMV plaque formation as compared to the virus control experiment: 10 micrograms per ml, MRC-5 cells, 7-10 days
[2] = test system: hepatitis B virus (HBV) ayw strain; experiment: HBV experimental assay system, HepG2-2.2.15, secreted HBV DNA by TaqMan PCR; format: cell-based; details: 10 micrograms per ml, six days, HBV DNA in supernatant

Compound | inhibition of the tube formation of human endothelial cells (HUVEC) | inhibition of HCMV plaque formation as compared to the virus control experiment (HCMV strain AD169) | inhibition of HBV replication as compared to the virus control infection [2] [%] | antiviral activity of positive control compounds (HIV-1IIIB) | also measured
Ala-Gly-Glu-Gly-Leu-Asn-Ser-Gln-Phe-Trp-Ser-Leu-Ala-Ala-Pro-Gln-Arg-Phe-NH2 (AGEGLNSQFWSLAAPQRF-NH2) [Peptide 2] | did not inhibit | did not inhibit | 42.6 | – | IFNγ spleen cells; TH1 response (% of control) [1]: 84.8 % of control; IL-2 spleen cells (% of control) [1]: 0.0 % of control; IL-4 spleen cells; TH2 response (% of control) [1]: 0.0 % of control; IL-5 spleen cells; TH2 response (% of control) [1]: 52.2 % of control; TNF-a spleen cells; TH1 response (% of control) [1]: 92.1 % of control
Nc1nc(O)c2ncn(COC(CO)CO)c2n1 [Ganciclovir, reference compound] | – | – | – | – | antiviral activity of positive control compound (HCMV strain AD169; positive control, HCMV AD169 in MRC-5 cells): expected levels of antiviral activity
CC(C)(C)NC(=O)[C@@H]1CN(Cc2cccnc2)CCN1C[C@@H](O)C[C@@H](Cc1ccccc1)C(=O)N[C@H]1c2ccccc2C[C@H]1O [indinavir] | – | – | – | expected levels of antiviral activity | –
Cc1cn([C@H]2C[C@H](N=[N+]=[N-])[C@@H](CO)O2)c(=O)[nH]c1=O [AZT] | – | – | – | expected levels of antiviral activity | –
Asp-Leu-Arg-Val-Asp-Thr-Lys-Ser-Arg-Ala-Ala-Trp-Ala-Arg-Leu-Leu-Gln-Glu-His-Pro-Asn-Ala-Arg-Lys-Tyr-Lys-Gly-Ala-Asn-Lys-Lys-Gly-Leu-Ser-Lys-Gly-Cys-Phe-Gly-Leu-Lys-Leu-Asp-Arg-Ile-Gly-Ser-Met-Ser-Gly-Leu-Gly-Cys-OH (DLRVDTKSRAAWARLLQEHPNARKYKGANKKGLSKGCFGLKLDRIGSMSGLGC-OH; cysteine pairing not given here) [Peptide 1] | 34% | did not inhibit | 65.7 | – | –
